From US4474775A, “Pyrazol-4-yl phosphates and insecticidal and acaricidal use” (priority 1979, dated 1984) come the findings set out here.

The subject of one data set is Tetranychus urticae. Put plainly: Effectiveness against Tetranychus urticae (Testing Example 4). Conditions: decrease rate grade, 500 ppm spray on kidney bean plant; for Efficacy grading, 2nd day: 2nd day after spraying; for Efficacy grading, 7th day: 7th day after spraying. The class given is in vivo. How it is done:
Testing Example 4: Effectiveness against Tetranychus urticae
A test compound was processed into an emulsifiable concentrate in accordance with the formulation of Example 6, and diluted with water (with Dyne®, spreading agent, as diluted 3000-fold) to prepare a 500 ppm aqueous solution. Ten female adults of Tetranychus urticae) were infected on the seedling of a kidney bean plant water-cultured in a polyethylene cup, and the cups were placed in a glass chamber (28° C.) for 24 hours, followed by spraying 20 ml of the aqueous solution on the kidney bean plant. After the sprayed cup was placed again in the glass chamber, the number of the adults and larvae living on the leaves was counted on the 2nd and 7th days after spraying. The test was repeated twice, and the test results are tabulated in Table 5 in terms of the efficacy grading as determined by calculating a decrease rate by the following equation:
Decrease rate (%)=[(number of mites tested-number of larvae living on the day of inspection)/(number of mites tested)]×100

A further data set concerns Unaspis yanonensis. Briefly: Effectiveness against Unaspis yanonensis (Testing Example 3). It counts as in vivo. Conditions: 480 h, second-instar larvae, 500 ppm wettable powder suspension sprayed, 20th day after spraying. How it is done:
Testing Example 3: Effectiveness of Unaspis yanonensis
A test compound was processed into a wettable powder in accordance with the formulation of Example 7, and was diluted with water (with Dyne®, spreading agent, as diluted 3000-fold) to prepare a 500 ppm aqueous suspension. 20 ml of the aqueous suspension was sprayed on second-instar larvae (10 to 50 of the number parasitized) of Unaspis yanonensis on a seedling of Citrus trifoliate (2 months after germination) being planted in a pot (9 cm in diameter). After the sprayed pot was transferred to a greenhouse (25° to 30°C.), adult insects were counted on the 20th day after spraying. Mortality (%) is calculated by the following equation: [formula]

Data set [1] is described as follows: Oral acute toxicity in mice (Toxicological Test). The settings on record: mouse, in vivo, five-week aged ddY-SLC strained male mice. From the text: Below tabulated are the oral acute toxicity values obtained with five-week aged, ddY-SLC strained male mice: […]
For another data set, the system named is Spodoptera litura. Briefly: Effectiveness against Spodoptera litura (Testing Example 2). The class given is in vivo. Conditions: second-instar larvae, 500 ppm spray on soybean, 28° C., 24 hours. On the procedure:
Testing Example 2: Effectiveness against Spodoptera litura
Twenty milliliters of a 500 ppm, water-diluted solution (with Dyne® Takeda Chem. Ind. Ltd., spreading agent, as diluted 3000-fold) of the test compound (the emulsifiable concentrate of Example 6) was sprayed on grown seedlings (10 days after germination) of soybean plant water-cultured in a polyethylene cup by the use of a spray gun (nozzle pressure of 1 kg/cm^2 gauge) in a spraying chamber. 2 hours after spraying, two main leaves of soybean plant were cut off and were placed into two cups (6 cm in diameter and 4 cm in depth), respectively, and ten second-instar larvae of Spodoptera litura were liberated. The cups were left in the room (28° C.) for 24 hours, and the dead larvae were counted.

Data set [2] concerns Laodelphax striatellus. Put plainly: Effectiveness against Laodelphax striatellus, adults, dust on paddy-rice plant (Testing Example 1 (b)). The class given is in vivo. Conditions: small brown planthopper, adults on dusted rice, 24 h. On the procedure: (§1) Testing Example 1: Effectiveness against Laodelphax striatellus
(b) A test compound was processed into a dust preparation in accordance with the formulation of Example 8, and […] of the preparation was dusted on the potted paddy-rice plant (1/5,000 a) by the Berger Duster method. After dusting, leaves (15 cm long) of the paddy rice were cut off and were placed in a test tube containing 1 ml of water in the bottom, and ten adults of Laodelphax striatellus were released therein. After allowing the test tube to stand in the room (28° C.) for 24 hours, the dead insects were counted.

The test system of data set [3] is Laodelphax striatellus. Put plainly: Effectiveness against Laodelphax striatellus, third-instar larvae, root dip (Testing Example 1 (a)). The class given is in vivo. Conditions: 40 ppm emulsifiable concentrate dilution, root dip 2 hours, 28° C., 24 hours, read-out: Mortality (I). On the procedure: as §1
(a) A test compound was processed into an emulsifiable concentrate in accordance with the formulation of Example 6, followed by diluting with water to prepare a treating solution of a 40 ppm concentration. 2.5 ml of the treating solution was placed into a test tube (with 1.7 cm of diameter, 4 cm deep), in which three seedlings of a paddy-rice plant (on the 7th day after germination) were allowed to stand so their root portions were dipped into the solution for 2 hours. The seedlings were then transferred into a test tube having 1 ml water placed in the bottom, and ten third-instar larvae of Laodelphax striatellus were released. After allowing the test tube to stand in the room (28° C.) for 24 hours, the dead larvae were counted. The test is repeated twice, and the test results are tabulated, in terms of mortality, in Table 2 (I).

As for `CCCOP(=S)(OCC)Oc1cnn(-c2ccccc2)c1` (centres unmarked) [Compound No. 3], in the data set with Tetranychus urticae, the “Efficacy grading, 2nd day” value is 3 (Not less than 90) and the “Efficacy grading, 7th day” value is on record as 0 (Not more than 20). Besides, the mortality (in general, the share of the test organisms that died) at 500 µg/mL in the data set on Unaspis yanonensis stood at 79%. Moreover, the LD50 (in general, the dose at which mortality reaches 50%) in data set [1] was more than 300 mg/kg.

For the molecule `CCCSP(=S)(OCC)Oc1cnn(-c2ccc(OC)cc2)c1` (centres unmarked) [compound 25], in the data set on Tetranychus urticae, the “Efficacy grading, 2nd day” value is listed as 3 (Not less than 90) and the “Efficacy grading, 7th day” value is on record as 3 (Not less than 90). Further, the mortality at 500 µg/mL with Unaspis yanonensis was 100%. The molecule also registered an LD50 in data set [1] of more than 300 mg/kg. This molecule showed a mortality at 500 ppm with Spodoptera litura of 100%.

`CCCSP(=O)(OCC)Oc1cnn(-c2ccc(Cl)c(Cl)c2)c1` (centres unmarked) [Compound No. 31, O-ethyl-O-[3,4-dichlorophenyl)pyrazol-4-yl]-S-n-propyl phosphorothiolate]: the “Mortality (II)” value with Laodelphax striatellus [2] is on record as 90%. In the data set with Tetranychus urticae, the “Efficacy grading, 2nd day” value was 3 (Not less than 90) and the “Efficacy grading, 7th day” value is listed as 3 (Not less than 90). In addition, the mortality at 500 µg/mL in the data set on Unaspis yanonensis worked out at 75%. In data set [1], this molecule had a median lethal dose (LD50) of more than 300 mg/kg. In the data set with Spodoptera litura, this molecule showed a mortality at 500 ppm of 100%. The mortality at 40 µg/mL in the data set on Laodelphax striatellus [3] stood at 100%.

`CCCSP(=O)(OCC)Oc1cnn(-c2ccc(C)cc2C)c1` (centres unmarked) [compound 35]: in the data set on Tetranychus urticae, the “Efficacy grading, 2nd day” value is on record as 3 (Not less than 90) and the “Efficacy grading, 7th day” value is listed as 3 (Not less than 90). Besides, in the data set on Unaspis yanonensis, the mortality at 500 µg/mL is 82%. The same molecule gave an LD50 in data set [1] of approximately 300 mg/kg. The molecule further gave a mortality at 500 ppm with Spodoptera litura of 100%.

As to `CCCSP(=O)(OCC)Oc1cnn(-c2cc(Cl)cc(Cl)c2)c1` (centres unmarked) [compound 33], in the data set with Laodelphax striatellus [2], the “Mortality (II)” value worked out at 65%. Besides, in the data set with Tetranychus urticae, the “Efficacy grading, 2nd day” value is listed as 3 (Not less than 90) and the “Efficacy grading, 7th day” value is recorded as 3 (Not less than 90). The molecule further had a mortality at 500 µg/mL in the data set on Unaspis yanonensis of 70%. Besides, the median lethal dose (LD50) in data set [1] was more than 300 mg/kg. Moreover, in the data set on Spodoptera litura, the mortality at 500 ppm is 100%. Further, the mortality at 40 µg/mL with Laodelphax striatellus [3] is 100%.

Take `CCCSP(=O)(OCC)Oc1cnn(-c2ccccc2)c1` (centres unmarked) [Compound No. 4, O-ethyl-O-(1-phenylpyrazol-4-yl)-S-n-propylphosphorothiolate]: in the data set on Tetranychus urticae, the “Efficacy grading, 2nd day” value is given as 3 (Not less than 90) and the “Efficacy grading, 7th day” value was 3 (Not less than 90). In addition, the mortality at 500 µg/mL in the data set with Unaspis yanonensis turned out to be 84%. This molecule came in with an LD50 in data set [1] of more than 300 mg/kg. In the data set with Spodoptera litura, this molecule had a mortality at 500 ppm of 100%.

In the data set with Unaspis yanonensis, `CCOP(=S)(OCC)Oc1cnn(-c2ccc(C)cc2C)c1` [compound 34] had a mortality at 500 µg/mL of 79%. This molecule displayed a 50% lethal dose (LD50) in data set [1] of more than 300 mg/kg.

Turning to `COP(=S)(OC)Oc1cnn(-c2ccccc2)c1` [Compound No. 1], in the data set on Tetranychus urticae, the “Efficacy grading, 2nd day” value is 3 (Not less than 90) and the “Efficacy grading, 7th day” value is recorded as 3 (Not less than 90). The same molecule yielded a mortality at 500 µg/mL with Unaspis yanonensis of 86%. In data set [1], this molecule showed a median lethal dose (LD50) of more than 300 mg/kg.

For the molecule `CCOP(=S)(OCC)Oc1cnn(-c2ccccc2)c1` [compound 2], the mortality at 500 µg/mL with Unaspis yanonensis was determined as 75%. In data set [1], the LD50 was more than 300 mg/kg.

Regarding `CCCSP(=O)(OCC)Oc1cnn(-c2ccc(Cl)cc2Cl)c1` (centres unmarked) [compound 29], in the data set on Laodelphax striatellus [2], the “Mortality (II)” value was 30%. In the data set with Tetranychus urticae, the “Efficacy grading, 2nd day” value was 3 (Not less than 90) and the “Efficacy grading, 7th day” value is 3 (Not less than 90). For the same molecule, the mortality at 500 µg/mL in the data set with Unaspis yanonensis is 97%. In data set [1], the median lethal dose (LD50) was approximately 300 mg/kg. For the same molecule, the mortality at 500 ppm with Spodoptera litura amounted to 100%. In addition, in the data set on Laodelphax striatellus [3], the mortality at 40 µg/mL worked out at 95%.

Take `CCCSP(=O)(OCC)Oc1cnn(-c2ccccc2Cl)c1` (centres unmarked) [compound 12]: in the data set on Tetranychus urticae, the “Efficacy grading, 2nd day” value is given as 3 (Not less than 90) and the “Efficacy grading, 7th day” value is on record as 3 (Not less than 90). The mortality at 500 µg/mL in the data set on Unaspis yanonensis came out at 71%. The same molecule had an LD50 in data set [1] of more than 300 mg/kg. This molecule also had a mortality at 500 ppm with Spodoptera litura of 100%.

Turning to `CCCSP(=O)(OCC)Oc1cnn(-c2ccc(F)cc2)c1` (centres unmarked) [compound 18], the “Mortality (II)” value in the data set on Laodelphax striatellus [2] is 100%. Besides, in the data set with Tetranychus urticae, the “Efficacy grading, 2nd day” value is 3 (Not less than 90) and the “Efficacy grading, 7th day” value is 3 (Not less than 90). Further, the 50% lethal dose (LD50) in data set [1] is more than 300 mg/kg. In the data set on Spodoptera litura, this molecule gave a mortality at 500 ppm of 100%. Also, the mortality at 40 µg/mL in the data set on Laodelphax striatellus [3] amounted to 100%.

Turning to `CCCSP(=S)(OCC)Oc1cnn(-c2ccc(Cl)cc2)c1` (centres unmarked) [Compound No. 17], the “Mortality (II)” value in the data set with Laodelphax striatellus [2] turned out to be 35%. Also, in the data set on Tetranychus urticae, the “Efficacy grading, 2nd day” value is 3 (Not less than 90) and the “Efficacy grading, 7th day” value is 3 (Not less than 90). This molecule yielded a 50% lethal dose (LD50) in data set [1] of more than 300 mg/kg. The same molecule came in with a mortality at 500 ppm in the data set with Spodoptera litura of 100%. For the same molecule, in the data set on Laodelphax striatellus [3], the mortality at 40 µg/mL was determined as 100%.

With `CCCSP(=O)(OCC)Oc1cnn(-c2cccc(Cl)c2)c1` (centres unmarked) [compound 13], in the data set with Laodelphax striatellus [2], the “Mortality (II)” value came out at 90%. Besides, in the data set with Tetranychus urticae, the “Efficacy grading, 2nd day” value was 3 (Not less than 90) and the “Efficacy grading, 7th day” value is on record as 3 (Not less than 90). In data set [1], this molecule gave a median lethal dose (LD50) of more than 300 mg/kg. The molecule also returned a mortality at 500 ppm with Spodoptera litura of 100%. Moreover, the mortality at 40 µg/mL in the data set with Laodelphax striatellus [3] was 100%.

On to `CCCSP(=O)(OCC)Oc1cnn(-c2ccccc2C)c1` (centres unmarked) [compound 22], for which, in the data set with Laodelphax striatellus [2], the “Mortality (II)” value amounted to 63%. For the same molecule, in the data set with Tetranychus urticae, the “Efficacy grading, 2nd day” value is on record as 3 (Not less than 90) and the “Efficacy grading, 7th day” value was 3 (Not less than 90). The LD50 in data set [1] is approximately 300 mg/kg. For the same molecule, the mortality at 500 ppm in the data set on Spodoptera litura came to 100%. Moreover, the mortality at 40 µg/mL in the data set on Laodelphax striatellus [3] stood at 85%.

With `CCCSP(=O)(OCC)Oc1cnn(-c2ccc(Cl)cc2)c1` (centres unmarked) [Compound No. 16, O-ethyl-O-[1-(4-chlorophenyl)pyrazol-4-yl]-S-n-propyl phosphorothiolate], the “Mortality (II)” value in the data set on Laodelphax striatellus [2] was determined as 75%. Besides, in the data set on Tetranychus urticae, the “Efficacy grading, 2nd day” value is 3 (Not less than 90) and the “Efficacy grading, 7th day” value was 3 (Not less than 90). The LD50 in data set [1] was more than 300 mg/kg. In the data set with Spodoptera litura, this molecule displayed a mortality at 500 ppm of 100%. In addition, the mortality at 40 µg/mL in the data set with Laodelphax striatellus [3] stood at 97%.
